According to the supplement of paper PMC10307832:

Tests used:
[1] = compound: C1CC1C(=O)NC2=NNC3=C2C=CC(=C3)C4=CC(=CC=C4)C(=O)NC5CC5 [XMD13-2]; test: relative viability (nuclei count vs DMSO), 5 days (fraction); higher = more cells survive
Method in brief: (§1)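 On vehicle-anchored 1536-well plates, lung cancer cell lines held overnight at 37 °C were pinned with five library-drug doses (not always all listed) spaced by √10. With no medium change over 5 days, they were then fixed, permeabilised and Hoechst-stained in one step and imaged at 4×. MetaXpress counted nuclei, and viability is the median across plates of treated-well over vehicle-well nuclei. Acceptance needed control CV below 25% and at least one doubling.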

[2] = compound: Cc1nc(Nc2ncc(C(=O)Nc3c(C)cccc3Cl)s2)cc(N2CCN(CCO)CC2)n1 [Dasatinib]; test: as above
Method in brief: as §1

Row | Cell Line | relative viability ([1]; 0.05 µM) | relative viability ([1]; 0.1581 µM) | relative viability ([1]; 0.5 µM) | relative viability ([1]; 1.581 µM) | relative viability ([1]; 5 µM) | relative viability ([2]; 0.005 µM) | relative viability ([2]; 0.01581 µM) | relative viability ([2]; 0.05 µM) | relative viability ([2]; 0.075 µM, anchor plate) | relative viability ([2]; 0.1581 µM) | relative viability ([2]; 0.5 µM)
1 | NCI-H322M | 1.05 | 0.918 | 0.893 | 0.911 | 1.08 | 0.892 | 0.827 | 0.526 | 0.257 | 0.319 | 0.216
2 | NCI-H358 | 1.18 | 0.918 | 1.06 | 0.928 | 0.704 | 0.867 | 0.695 | 0.593 | 0.165 | 0.248 | 0.163
3 | NCI-H441 | 1.19 | 1.08 | 0.968 | 0.96 | 0.771 | 1.03 | 0.997 | 1.11 | 0.675 | 0.636 | 0.338
4 | NCI-H460 | 1.06 | 1.01 | 1.06 | 1.01 | 0.982 | 0.949 | 0.897 | 0.856 | 0.529 | 0.73 | 0.605
5 | NCI-H520 | 1.09 | 1.09 | 1.08 | 0.851 | 0.643 | 0.785 | 0.592 | 0.518 | 0.21 | 0.257 | 0.243
6 | NCI-H522 | 1.08 | 1.03 | 0.935 | 0.918 | 0.745 | 0.964 | 0.829 | 0.801 | 0.904 | 0.768 | 0.758
7 | NCI-H596 | 1.03 | 1.02 | 0.944 | 1.03 | 1.12 | 0.978 | 0.788 | 0.736 | 0.631 | 0.551 | 0.453
8 | NCI-H647 | 1.12 | 1.05 | 1.06 | 1.03 | 0.747 | 0.76 | 0.572 | 0.372 | 0.199 | 0.227 | 0.207
9 | NCI-H650 | 1.1 | 0.963 | 1.04 | 0.845 | 1.03 | 0.876 | 0.936 | 0.861 | 0.475 | 0.712 | 0.5
10 | NCI-H661 | 0.971 | 1.04 | 0.971 | 0.976 | 0.844 | 0.955 | 1.06 | 0.911 | 0.974 | 0.8 | 0.661
11 | NCI-H727 | 1.06 | 0.892 | 0.973 | 0.947 | 1.04 | 0.724 | 0.678 | 0.53 | 0.37 | 0.388 | 0.256
12 | NCI-H838 | 1.11 | 0.962 | 1.01 | 0.998 | 1.07 | 0.87 | 0.676 | 0.532 | 0.307 | 0.38 | 0.289
13 | NCI-H1299 | 0.984 | 1.04 | 1.05 | 1.04 | 1.09 | 1.04 | 0.996 | 0.998 | – | 0.886 | 0.263
14 | NCI-H1355 | 1.12 | 0.961 | 0.995 | 0.949 | 1.02 | 1 | 0.83 | 0.998 | 0.731 | 0.781 | 0.582
15 | NCI-H1395 | 1.06 | 0.918 | 0.948 | 0.852 | 1 | 0.91 | 1.03 | 0.783 | 0.435 | 0.442 | 0.429
